Paper PMC5323270 (SLAS discovery, 2016)
≈ marks a conversion by molar mass, not a printed value. Read-outs that look alike come from different tables or passages of the source.

Legend:
M. tuberculosis H37Rv [1] = experiment: microbe, parasite or virus in culture; format: cell-based; details: Mycobacterium tuberculosis, read-out: MIC90 LORA
M. tuberculosis H37Rv [2] = experiment: microbe, parasite or virus in culture; format: cell-based; details: Mycobacterium tuberculosis, read-out: MIC90 MABA

CO[C@H]1/C=C/O[C@@]2(C)Oc3c(C)c(O)c4c(O)c(c(/C=N/N5CCN(C)CC5)c(O)c4c3C2=O)NC(=O)/C(C)=C\C=C\[C@H](C)[C@H](O)[C@@H](C)[C@@H](O)[C@@H](C)[C@H](OC(C)=O)[C@@H]1C [Rifampin (RMP), Rifampin]
MIC90 (M. tuberculosis H37Rv [1]): 0.46 µM (≈ 0.379 µg/mL) | MIC90 (M. tuberculosis H37Rv [2]): 0.13 µM (≈ 0.107 µg/mL)
